Among the data in patent publication US8501781B2 (priority 2009, dated 2013) are logP and chromatographic logP values, retold here.

This data set is described as follows: logP by HPLC (EEC Directive 79/831 Annex V.A8). Format: physicochemical.
The mark [1] stands for this setting: [b] LC-MS, acidic range, pH 2.7, 0.1% aqueous formic acid and acetonitrile.
The mark [2] stands for this setting: pH 2.7, given in the preparation examples, read-out: log P (pH 2.7).
Where [3] appears, read: [c] LC-MS, neutral range, pH 7.8, 0.001 molar aqueous ammonium bicarbonate and acetonitrile.

One may read the logP as a log measure of how a compound divides between an organic and an aqueous phase.

Structures are written as SMILES. Like-named read-outs stand apart in the source and are kept apart here. Marks after values point to notes of the source that are not given here.

Turning to `O=C(Oc1cccc2ccccc12)c1csc(C2CCN(C(=O)Cc3cccc(C(F)(F)F)c3)CC2)n1` [Example 1], the logP under setting [1] is 4.16^[b]. The same measure, in the same setting: with `O=C(OC1CCCCC1)c1csc(C2CCN(C(=O)Cc3cccc(C(F)(F)F)c3)CC2)n1` [Example 2] the figure was 4.21^[b]; with `CCCCC(=O)N1CCC(c2nc(C(=O)Oc3cccc4ccccc34)cs2)CC1` [Example 3], 3.66^[b]; with `CCCCC(=O)N1CCC(c2nc(C(=O)OC3CCCCC3)cs2)CC1` [Example 4], 3.64^[b]. As to `Cn1ncc(CC(=O)N2CCC(c3nc(C(=O)Oc4cccc5ccccc45)cs3)CC2)c1Cl` [Example 5], the log partition coefficient (logP) under setting [1] was 3.00^[b]. With `Cn1ncc(CC(=O)N2CCC(c3nc(C(=O)OC4CCCCC4)cs3)CC2)c1Cl` [Example 6], the logP under setting [1] is 2.93^[b]. Still for that read-out and setting: in the case of `O=C(Oc1cccc2ccccc12)c1csc(C2CCN(C(=O)Cc3ccsc3)CC2)n1` [Example 7] it was 3.46^[b]; in that of `O=C(OC1CCCCC1)c1csc(C2CCN(C(=O)Cc3ccsc3)CC2)n1` [Example 8], 3.42^[b]. Regarding `O=C(OC1CCCCC1)c1csc(C2CCN(C(=O)Cc3cccc(Cl)c3)CC2)n1` [Example 9], under setting [1], the log partition coefficient (logP) is 4.04^[b]. Same read-out and setting: in the case of `O=C(Oc1cccc2ccccc12)c1csc(C2CCN(C(=O)Cc3cccc(Cl)c3)CC2)n1` [Example 10] it was 4.01^[b]; in that of `O=C(Oc1cccc2ccccc12)c1csc(C2CCN(C(=O)Cc3cc(C(F)(F)F)ccc3Cl)CC2)n1` [Example 11], 4.56^[b]; in that of `O=C(OC1CCCCC1)c1csc(C2CCN(C(=O)Cc3cc(C(F)(F)F)ccc3Cl)CC2)n1` [Example 12], 4.64^[b]. The same measure, in the same setting: in the case of `O=C(OC1CCCCC1)c1csc(C2CCN(C(=O)Cc3cc(C(F)(F)F)ccc3Br)CC2)n1` [Example 13] it was 4.75^[b]; in that of `O=C(OC1CCCCC1)c1csc(C2CCN(C(=O)Cc3cc(Cl)ccc3Cl)CC2)n1` [Example 14], 4.49^[b]. Take `O=C(OC1CCCCC1)c1csc(C2CCN(C(=O)Cc3cc(Br)ccc3Br)CC2)n1` [Example 15, Cyclohexyl 2-{1-[(2,5-dibromophenyl)acetyl]piperidin-4-yl}-1,3-thiazole-4-carboxylate]: under setting [2], the chromatographic logP turned out to be 4.72. Consider `O=C(OC1CCCCC1)c1csc(C2CCN(C(=O)Cc3cc(C(F)(F)F)ccc3C(F)(F)F)CC2)n1` [Example 16], for which, under setting [1], the log partition coefficient (logP) is 4.81^[b]. On the same count and under the same terms, in the case of `Cc1ccc(Br)cc1CC(=O)N1CCC(c2nc(C(=O)OC3CCCCC3)cs2)CC1` [Example 17] it was 4.47^[b]; in that of `O=C(OC1CCCCC1)c1csc(C2CCN(C(=O)Cc3cc(Cl)ccc3C(F)(F)F)CC2)n1` [Example 18], 4.68^[b]; in that of `Cc1ccc(I)cc1CC(=O)N1CCC(c2nc(C(=O)OC3CCCCC3)cs2)CC1` [Example 19], 4.66^[b]. The same measure, in the same setting: with `Cc1cc(CC(=O)N2CCC(c3nc(C(=O)OC4CCCCC4)cs3)CC2)c(C)s1` [Example 20] the figure was 4.24^[b]; with `Cc1sc(-c2ccccc2)nc1CC(=O)N1CCC(c2nc(C(=O)OC3CCCCC3)cs2)CC1` [Example 21], 4.57^[b]; with `Cc1oc(-c2ccccc2)nc1CC(=O)N1CCC(c2nc(C(=O)OC3CCCCC3)cs2)CC1` [Example 22], 4.15^[b]. The same measure, in the same setting: with `Cc1sc(-c2ccccc2)nc1CC(=O)N1CCC(c2nc(C(=O)Oc3cccc4ccccc34)cs2)CC1` [Example 23] the figure was 4.43^[b]; with `Cc1oc(-c2ccccc2)nc1CC(=O)N1CCC(c2nc(C(=O)Oc3cccc4ccccc34)cs2)CC1` [Example 24], 4.04^[b].

Regarding `Cc1cc(CC(=O)N2CCC(c3nc(C(=O)Oc4cccc5ccccc45)cs3)CC2)c(C)s1` [Example 25], the log partition coefficient (logP) under setting [1] was 4.12^[b]. Same read-out and setting: in the case of `Cc1nc(CC(=O)N2CCC(c3nc(C(=O)Oc4cccc5ccccc45)cs3)CC2)c(C)s1` [Example 26] it was 3.10^[b]; in that of `Cc1nc(CC(=O)N2CCC(c3nc(C(=O)OC4CCCCC4)cs3)CC2)c(C)s1` [Example 27], 3.02^[b]. On the same count and under the same terms, in the case of `Cc1nc(C)n(CC(=O)N2CCC(c3nc(C(=O)Oc4cccc5ccccc45)cs3)CC2)n1` [Example 28] it was 2.17^[b]; in that of `Cc1nc(C)n(CC(=O)N2CCC(c3nc(C(=O)OC4CCCCC4)cs3)CC2)n1` [Example 29], 2.08^[b]. As to `O=C(OC1CCCCC1)c1csc(C2CCN(S(=O)(=O)Cc3cc(F)ccc3F)CC2)n1` [Example 30, Cyclohexyl 2-{1-[(2,5-difluorobenzyl)sulphonyl]piperidin-4-yl}-1,3-thiazole-4-carboxylate], under setting [2], the chromatographic logP was 4.05. For `Cc1cc(C(F)(F)F)nn1CC(=O)N1CCN(c2nc(C(=O)OC(C)c3cc(Cl)ccc3Cl)cs2)CC1` (stereo not drawn) [Example 31], under setting [1], the log partition coefficient (logP) was 4.28^[b]. For the compound `Cc1cc(C(F)(F)F)nn1CC(=O)N1CCN(c2nc(C(=O)OC3CCCC(C(F)(F)F)C3)cs2)CC1` (stereo not drawn) [Example 32], the log partition coefficient (logP) under setting [3] was 3.81^[c]. Take `Cc1cc(C(F)(F)F)nn1CC(=O)N1CCN(c2nc(C(=O)Sc3cc(C(F)(F)F)ccc3Cl)cs2)CC1` [Example 33]: the logP under setting [1] is 4.51^[b]. Regarding `Cc1cc(C(F)(F)F)nn1CC(=O)N1CCN(c2nc(C(=O)SC3CCCCC3)cs2)CC1` [Example 34], the logP under setting [3] was 4.43^[c].

Turning to `COc1ccc(COC(=O)c2csc(N3CCN(C(=O)Cn4nc(C(F)(F)F)cc4C)CC3)n2)cc1` [Example 35], the lipophilicity (logP) under setting [3] is 3.19^[c].

`Cc1cc(C(F)(F)F)nn1CC(=O)N1CCN(c2nc(C(=O)Oc3cccc4cccnc34)cs2)CC1` [Example 36]: the logP is, setting by setting: under setting [1], 2.85; under setting [3], 2.83. For `Cc1cc(C(F)(F)F)nn1CC(=O)N1CCN(c2nc(C(=O)Oc3ccc(Cl)cc3Cl)cs2)CC1` [Example 37], in that order: 3.96 and 3.87.

With `Cc1ccc(C(F)(F)F)cc1OC(=O)N1CCC(c2nc(C(=O)OC3CCCCC3)cs2)CC1` [Example 38, 2-Methyl-5-(trifluoromethyl)phenyl 4-{4-[(cyclohexyloxy)carbonyl]-1,3-thiazol-2-yl}piperidine-1-carboxylate], under setting [2], the chromatographic logP was determined as 5.28. `Cc1cc(C(F)(F)F)nn1CC(=O)N1CCN(c2nc(C(=O)Oc3ccccc3Cl)cs2)CC1` [Example 39] gave a log partition coefficient (logP) under setting [1] of 3.46 and a log partition coefficient (logP) under setting [3] of 3.41. For `Cc1cc(C(F)(F)F)nn1CC(=O)N1CCN(c2nc(C(=O)Oc3ccc4ccccc4c3)cs2)CC1` [Example 40], in that order: 3.81 and 3.76. For `Cc1cc(C(F)(F)F)nn1CC(=O)N1CCN(c2nc(C(=O)OC3Cc4ccccc4C3)cs2)CC1` [Example 41], in that order: 3.64 and 3.56. For `Cc1cc(C(F)(F)F)nn1CC(=O)N1CCN(c2nc(C(=O)OC3CCc4ccccc4C3)cs2)CC1` (stereo not drawn) [Example 42], in that order: 3.87 and 3.82. `Cc1cc(C(F)(F)F)nn1CC(=O)N1CCN(c2nc(C(=O)OC3CCCc4ccccc43)cs2)CC1` (stereo not drawn) [Example 43]: the logP was determined as 3.98 under setting [1] and 3.91 under setting [3]. On the same counts, the results for `Cc1cc(C(F)(F)F)nn1CC(=O)N1CCN(c2nc(C(=O)OCc3ccc(Cl)cc3Cl)cs2)CC1` [Example 44] are 4.12^[c]; 4.12^[b] and 4.12^[c]; 4.12^[b]. On the same counts, the results for `Cc1cc(C(F)(F)F)nn1CC(=O)N1CCN(c2nc(C(=O)Sc3ccc4ccccc4c3)cs2)CC1` [Example 45] are 4.33^[c]; 4.33^[b] and 4.33^[c]; 4.33^[b]. `Cc1cc(C(F)(F)F)nn1CC(=O)N1CCN(c2nc(C(=O)OC3CCCCC3)cs2)CC1` [Example 46, Cyclohexyl 2-(4-{[5-methyl-3-(trifluoromethyl)-1H-pyrazol-1-yl]acetyl}piperazin-1-yl)-1,3-thiazole-4-carboxylate]: the chromatographic logP ([c] LC-MS, neutral range, pH 7.8, 0.001 molar aqueous ammonium bicarbonate and acetonitrile, read-out: logP) came to 3.68; the chromatographic logP under setting [2] is 3.69. With `Cc1cc(C(F)(F)F)nn1CC(=O)N1CCN(c2nc(C(=O)Sc3ccc(Cl)cc3Cl)cs2)CC1` [Example 47], the logP by setting is: under setting [1], 4.49; under setting [3], 4.5. For `Cc1cc(C(F)(F)F)nn1CC(=O)N1CCN(c2nc(C(=O)OCc3ccccc3Cl)cs2)CC1` [Example 48], in that order: 3.64^[c]; 3.64^[b] and 3.64^[c]; 3.64^[b].

`Cc1cc(C(F)(F)F)nn1CC(=O)N1CCN(c2nc(C(=O)SCc3ccccc3Cl)cs2)CC1` [Example 49]: the log partition coefficient (logP) is, setting by setting: under setting [1], 4.29; under setting [3], 4.32. For `Cc1cc(C(F)(F)F)nn1CC(=O)N1CCN(c2nc(C(=O)SCc3ccc(Cl)cc3Cl)cs2)CC1` [Example 50], in that order: 4.79 and 4.87.

For `Cc1cc(C(F)(F)F)nn1CC(=O)N1CCN(c2nc(C(=O)OCc3c(F)cccc3F)cs2)CC1` [Example 51], the log partition coefficient (logP) runs as follows: under setting [1], 3.28; under setting [3], 3.33. As for `O=C(OC1CCCCC1)c1csc(C2CCN(C(=O)Cc3nc(C(F)(F)F)ccc3Cl)CC2)n1` [Example 52], the lipophilicity (logP) under setting [1] was 4.08^[b]. As for `Cc1cc(C(F)(F)F)nn1CC(=O)N1CCN(c2nc(C(=O)OCc3ccc(F)cc3F)cs2)CC1` [Example 53], the logP under setting [1] was determined as 3.42 and the logP under setting [3] was determined as 3.45. On the same counts, the results for `Cc1cc(C(F)(F)F)nn1CC(=O)N1CCN(c2nc(C(=O)OC(C)C3CCCCC3)cs2)CC1` (stereo not drawn) [Example 54] are 4.4 and 4.46. Turning to `O=C(OC1CCCCC1)c1csc(C2CCN(C(=O)C(=O)c3cccs3)CC2)n1` [Example 55], under setting [1], the lipophilicity (logP) is 3.46^[b]. Take `O=C(OC1CCCCC1)c1csc(C2CCN(C(=O)CC3CCCC(C(F)(F)F)C3)CC2)n1` (stereo not drawn) [Example 56]: the logP under setting [1] is 4.58^[b]. Still for that read-out and setting: in the case of `O=C(OC1CCCCC1)c1csc(C2CCN(C(=O)CCCC(F)(F)C(F)(F)F)CC2)n1` [Example 57] it was 4.22^[b]; in that of `CCCCCCC(=O)N1CCC(c2nc(C(=O)OC3CCCCC3)cs2)CC1` [Example 58], 4.51^[b].
